From ChEMBL document CHEMBL3046027, “In vitro and in vivo antifungal activity of synthetic pure isothiocyanates against Sclerotinia sclerotiorum” (Pest Manag Sci, 2011)
pEC50: −log10 of the molar value.

Key:
Sclerotinia sclerotiorum [1] = assay: In vivo antifungal Sclerotinia sclerotiorum in Pepper (Capsicum annuum L. cv. Sera Demre) assessed as inhibition of mycelial growth in volatile phase at 158 umol/L measured after 10 to 14 weeks; format: functional
Sclerotinia sclerotiorum [2] = assay: In vivo antifungal Sclerotinia sclerotiorum in Pepper (Capsicum annuum L. cv. Sera Demre) assessed as inhibition of mycelial growth in volatile phase at 79 umol/L measured after 10 to 14 weeks; format: functional
Sclerotinia sclerotiorum [3] = assay: Antifungal activity against Sclerotinia sclerotiorum assessed as inhibition of mycelial growth in contact phase at 2358 umol/l measured at 20 degC after 5 days; format: functional; conditions: 120 h, read-out: GI
Sclerotinia sclerotiorum [4] = assay: Antifungal activity against Sclerotinia sclerotiorum assessed as inhibition of mycelial growth in contact phase at 1572 umol/l measured at 20 degC after 5 days; format: functional; conditions: 120 h, read-out: GI
Sclerotinia sclerotiorum [5] = assay: Antifungal activity against Sclerotinia sclerotiorum assessed as inhibition of mycelial growth in contact phase at 786 umol/l measured at 20 degC after 5 days; format: functional; conditions: 120 h, read-out: GI
Sclerotinia sclerotiorum [6] = assay: Antifungal activity against Sclerotinia sclerotiorum assessed as inhibition of mycelial growth in contact phase at 708 umol/l measured at 20 degC after 5 days; format: functional; conditions: 120 h, read-out: GI
Sclerotinia sclerotiorum [7] = assay: Antifungal activity against Sclerotinia sclerotiorum assessed as inhibition of mycelial growth in contact phase at 550 umol/l measured at 20 degC after 5 days; format: functional; conditions: 120 h, read-out: GI
Sclerotinia sclerotiorum [8] = assay: Fungistatic activity in Sclerotinia sclerotiorum assessed as inhibition of carpogenic germination in volatile phase at 786 umol/l measured at 20 degC after 5 days relative to control; format: functional; conditions: 120 h
Sclerotinia sclerotiorum [9] = assay: Fungistatic activity in Sclerotinia sclerotiorum assessed as inhibition of carpogenic germination in volatile phase at 393 umol/l measured at 20 degC after 5 days relative to control; format: functional; conditions: 120 h
Sclerotinia sclerotiorum [10] = assay: Fungistatic activity in Sclerotinia sclerotiorum assessed as inhibition of carpogenic germination in volatile phase at 79 umol/l measured at 20 degC after 5 days relative to control; format: functional; conditions: 120 h
Sclerotinia sclerotiorum [11] = assay: Antifungal activity against Sclerotinia sclerotiorum assessed as inhibition of mycelial growth in volatile phase at 786 umol/l measured at 20 degC after 5 days; format: functional; conditions: 120 h, read-out: GI
Sclerotinia sclerotiorum [12] = assay: Fungistatic activity in Sclerotinia sclerotiorum assessed as sclerotial viability measured at 20 degC after 5 days; format: functional, organism-based; conditions: 120 h
Sclerotinia sclerotiorum [13] = assay: Fungistatic activity in Sclerotinia sclerotiorum assessed as inhibition of mycelial growth in volatile phase measured at 20 degC after 5 days; format: functional, organism-based; conditions: 120 h
Sclerotinia sclerotiorum [14] = assay: Fungistatic activity in Sclerotinia sclerotiorum assessed as inhibition of mycelial growth in contact phase measured at 20 degC after 5 days; format: functional, organism-based; conditions: 120 h
Sclerotinia sclerotiorum [15] = assay: Fungistatic activity in Sclerotinia sclerotiorum assessed as viability in volatile phase at 786 umol/l measured at 20 degC after 5 days relative to control; format: functional; conditions: 120 h, read-out: GI
Sclerotinia sclerotiorum [16] = assay: Fungistatic activity in Sclerotinia sclerotiorum assessed as inhibition of mycelial growth in contact phase at 2358 umol/l measured at 20 degC after 5 days relative to control; format: functional; conditions: 120 h, read-out: GI
Sclerotinia sclerotiorum [17] = assay: Antifungal activity against Sclerotinia sclerotiorum assessed as inhibition of mycelial growth in volatile phase at 550 umol/l measured at 20 degC after 5 days; format: functional; conditions: 120 h, read-out: GI
Sclerotinia sclerotiorum [18] = assay: Antifungal activity against Sclerotinia sclerotiorum assessed as inhibition of mycelial growth in volatile phase at 393 umol/l measured at 20 degC after 5 days; format: functional; conditions: 120 h, read-out: GI
Sclerotinia sclerotiorum [19] = assay: Antifungal activity against Sclerotinia sclerotiorum assessed as inhibition of mycelial growth in volatile phase at 79 umol/l measured at 20 degC after 5 days; format: functional; conditions: 120 h, read-out: GI
Sclerotinia sclerotiorum [20] = assay: Antifungal activity against Sclerotinia sclerotiorum assessed as inhibition of mycelial growth in volatile phase at 39 umol/l measured at 20 degC after 5 days; format: functional; conditions: 120 h, read-out: GI
Sclerotinia sclerotiorum [21] = assay: Antifungal activity against Sclerotinia sclerotiorum assessed as inhibition of germination in volatile phase at 786 umol/l measured at 20 degC after 5 days; format: functional; conditions: 120 h
Sclerotinia sclerotiorum [22] = assay: Antifungal activity against Sclerotinia sclerotiorum assessed as inhibition of germination in volatile phase at 393 umol/l measured at 20 degC after 5 days; format: functional; conditions: 120 h
Sclerotinia sclerotiorum [23] = assay: Antifungal activity against Sclerotinia sclerotiorum assessed as inhibition of germination in volatile phase at 236 umol/l measured at 20 degC after 5 days; format: functional; conditions: 120 h
Sclerotinia sclerotiorum [24] = assay: Antifungal activity against Sclerotinia sclerotiorum assessed as inhibition of germination in volatile phase at 79 umol/l measured at 20 degC after 5 days; format: functional; conditions: 120 h
Sclerotinia sclerotiorum [25] = assay: Antifungal activity against Sclerotinia sclerotiorum assessed as inhibition of germination in volatile phase at 39 umol/l measured at 20 degC after 5 days; format: functional; conditions: 120 h
Sclerotinia sclerotiorum [26] = assay: Fungistatic activity in Sclerotinia sclerotiorum assessed as inhibition of mycelial growth in volatile phase at 550 umol/l measured at 20 degC after 5 days relative to control; format: functional; conditions: 120 h, read-out: GI

For CCN=C=S [ETHYL ISOTHIOCYANATE], the inhibition in vivo at 158 µM (Sclerotinia sclerotiorum [1]) was 70%, the inhibition in vivo at 79 µM (Sclerotinia sclerotiorum [2]) was 38.3% and the inhibition of growth at 2358 µM (Sclerotinia sclerotiorum [3]) was 100%. For the same compound, the inhibition of growth at 1572 µM (Sclerotinia sclerotiorum [4]) was 81.5%, the inhibition of growth at 786 µM (Sclerotinia sclerotiorum [5]) was 69.5% and the inhibition of growth at 708 µM (Sclerotinia sclerotiorum [6]) was 56.2%. For the same compound, the inhibition of growth at 550 µM (Sclerotinia sclerotiorum [7]) was 34.2%, the inhibition at 786 µM (Sclerotinia sclerotiorum [8]) was 87.5% and the inhibition at 393 µM (Sclerotinia sclerotiorum [9]) was 62.5%. The inhibition at 79 µM (Sclerotinia sclerotiorum [10]) was 52.5%, the inhibition of growth at 786 µM (Sclerotinia sclerotiorum [11]) was 100% and the pEC50 (Sclerotinia sclerotiorum [12]) was 3.67. It also gave a pEC50 (Sclerotinia sclerotiorum [13]) of 3.80, a pEC50 (Sclerotinia sclerotiorum [14]) of 3.19 and an inhibition of growth at 786 µM (Sclerotinia sclerotiorum [15]) of 100%. For the same compound, the inhibition of growth at 2358 µM (Sclerotinia sclerotiorum [16]) was 100%, the inhibition of growth at 550 µM (Sclerotinia sclerotiorum [17]) was 100% and the inhibition of growth at 393 µM (Sclerotinia sclerotiorum [18]) was 56%. It also gave an inhibition of growth at 79 µM (Sclerotinia sclerotiorum [19]) of 30.8%, an inhibition of growth at 39 µM (Sclerotinia sclerotiorum [20]) of 5% and an inhibition at 786 µM (Sclerotinia sclerotiorum [21]) of 100%. The inhibition at 393 µM (Sclerotinia sclerotiorum [22]) was 66.7%, the inhibition at 236 µM (Sclerotinia sclerotiorum [23]) was 46.7% and the inhibition at 79 µM (Sclerotinia sclerotiorum [24]) was 26.7%. For the same compound, the inhibition at 39 µM (Sclerotinia sclerotiorum [25]) was 0% and the inhibition of growth at 550 µM (Sclerotinia sclerotiorum [26]) was 100%.
